Measurements taken from patent US6458862B1, “Foaming agents” (priority 1998, dated 2002).

How the values were obtained:
rat [1] = test: Acute toxicity in the oral rat, LD50; format: in vivo
rat [2] = test: Acute toxicity in the rat by inhalation, LD50; format: in vivo; settings: 4 hours
Inflammability in air = format: physicochemical; settings: marked § flammable

Row | Structure (SMILES) | Acute toxicity in the oral rat, LD50 (rat [1]) | Acute toxicity in the rat by inhalation, LD50 (rat [2]) | Inflammability in air, % volume (Inflammability in air)
1 | FC(F)OC(F)(F)C(F)(F)OC(F)F [HCF2OCF2CF2OCF2H, 1-difluoromethoxy-1,1,2,2-tetrafluoroethyl difluoromethyl ether] | >5000 ppmv/4 hours | >32000 ppmv/4 hours | –
2 | FC(Cl)(Cl)Cl [CFC 11, trichloro-fluoromethane] | >1000 ppmv/4 hours | 26200 ppmv/4 hours | –
3 | FC(F)OC(F)(F)OC(F)F [HCF2OCF2OCF2H, difluoromethoxy-bis(difluoromethyl ether)] | >5000 ppmv/4 hours | >32000 ppmv/4 hours | –
4 | CC(F)(Cl)Cl [HCFC 141b, 1,1-dichloro-1-fluoroethane] | >5000 ppmv/4 hours | 62000 ppmv/4 hours | 7.6-17.7§ % volume
